Data set [1] relates to A. baumanii ATCC 19606. Nature of the data set: Antibacterial activity (MIC, broth dilution). It is filed as cell-based, Acinetobacter baumanii. Conditions: CLSI, in µg/mL. The text has this: Staphylococcus aureus ATCC 29213, Escherichia coli ATCC 25922, Enterococcus faecalis ATCC 29212, Streptococcus pneumonia ATCC 49619 and Acinetobacter baumanii ATCC 19606 were obtained from Microbiologics (St. Cloud, MN). E. faecalis ATCC 51575, ATCC 51299 and REMEL C99707 and E. faecium ATCC 51559 (MDR), REMEL IH79985 and REMEL C110914 were generously provided by the Laboratory of Pathology, University of Maryland Baltimore School of Medicine. Unless stated otherwise, chemicals and reagents were purchased from Sigma.
(§1) Determination of the Minimal Inhibitory Concentrations (MIC) by dilution was carried out by broth dilution according to CLSI standards.
(In general: Broth dilution looks for growth in wells or tubes with falling amounts of substance.)

The subject of data set [2] is E. aerogenes ATCC 13048. Briefly: Antibacterial activity (MIC, broth dilution). It is filed as cell-based. The conditions noted are these: CLSI. As to the method:
as §1

Data set [3] has as its system E. cloacae ATCC 13047. Briefly: Antibacterial activity (MIC, broth dilution). The data set is classed as cell-based. The conditions noted are these: CLSI. As to the method:
as §1

The test system of data set [4] is E. faecium EF1509 (VRE). Nature of the data set: Antibacterial activity (MIC, broth dilution). The data set is classed as cell-based. Conditions: CLSI, in µg/mL. How it is done: as §1
Data set [5] relates to E. faecium F118 (VRE). Nature of the data set: Antibacterial activity (MIC, broth dilution). It is filed as cell-based. Conditions: CLSI, in µg/mL. How it is done: as §1
In data set [6] the test system is K. pneumoniae NR-15410 (KPC). Nature of the data set: Antibacterial activity (MIC, broth dilution). The data set is classed as cell-based. The conditions noted are these: CLSI. As to the method:
as §1

For data set [7], the system named is K. pneumoniae NR-15411 (KPC). Nature of the data set: Antibacterial activity (MIC, broth dilution). It is filed as cell-based. Conditions: CLSI. As to the method: as §1
Data set [8] has as its system P. aeruginosa ATCC 27853. Nature of the data set: Antibacterial activity (MIC, broth dilution). The conditions noted are these: CLSI. It is filed as cell-based. How it is done: as §1
For data set [9], the system named is P. aeruginosa PA01. Nature of the data set: Antibacterial activity (MIC, broth dilution). The conditions noted are these: CLSI. It is filed as cell-based. As to the method: as §1
Data set [10] concerns P. aeruginosa X13273. Briefly: Antibacterial activity (MIC, broth dilution). It is filed as cell-based. Conditions: CLSI, in µg/mL. How it is done:
as §1

Data set [11] concerns S. aureus HFH-30123 (MRSA). Briefly: Antibacterial activity (MIC, broth dilution). It is filed as cell-based. Conditions: CLSI. How it is done: as §1
Data set [12] deals with S. aureus MRSA 1094. Nature of the data set: Antibacterial activity (MIC, broth dilution). It is filed as cell-based. The conditions noted are these: CLSI. How it is done:
as §1

In data set [13] the test system is HeLa cells. Briefly: Cytotoxicity against mammalian cells (MTS assay). It is filed as cell-based. How it is done:
The cytotoxicity concentration of antibacterial compounds that produces half maximal decrease in viability (CC50) against mammalian cells (HeLa, ATCC CCL-2.2) was determined as described. The effect of compounds on HeLa cell viability was assessed in triplicate by measuring the mitochondrial activity using MTS assays according to the manufacturer’s instructions (Cell Titer 96 proliferation assay, Promega). The cells were incubated for 72 hours in RPMI1640 medium containing the compounds at final concentrations ranging from 64 to 0.125 μg/ml. CC50 was determined using a standard curve of serially diluted untreated cells in each experiment.

Data set [14] can be described thus: Lipid II binding by Surface Plasmon Resonance. Conditions: SPR, immobilized 3-Lipid II, 25°C. As to the method: Short-chain water-soluble Lipid II containing a lipid tail of three isoprene units was generated and purified essentially as described. Typically, M. flavus vesicles (120 μmol lipid-Pi) were incubated together with 500 μmol UDP-GlcNAc, 500 μmol UDP-MurNAC-pentapeptide and 400 μmol farnesyl phosphate in 100 mM Tris-HCl pH 8.0, 5 mM MgCl2. The incubation lasted two hours at room temperature for 3-P. The synthesis of 3-Lipid II was followed using RP-8 reversed phase TLC (Merck) developed in 75% methanol. For purification, the membranes were removed by centrifugation at 40,000 x g and the supernatant was collected and loaded on a C18 HPLC column and eluted with a linear gradient from 50 mM ammonium bicarbonate to 100% methanol in 30 minutes. Farnesyl-Lipid II (3-Lipid II) eluted at approximately 60% methanol. Its identity was confirmed by mass spectroscopy. Surface Plasmon Resonance binding experiments were carried out on a BIAcore T100 system (BIAcore Inc., Piscataway, NY) at 25°C. The assay buffer was 10 mM HEPES, 150 mM NaCl, 0.05% surfactant P20, pH 7.4 (± 3 mM EDTA) supplemented with 10% DMSO. 3-Lipid II (50 RUs) was immobilized on CM5 sensor chips using the amine-coupling chemistry recommended by the manufacturer. For initial determination of binding, compounds were introduced into the flow-cells (30 μl/min) in the running buffer at 10 μM. Resonance signals were corrected for nonspecific binding by subtracting the background of the control flow-cell. After each analysis, the sensor chip surfaces were regenerated with 50 mM NaOH for 30 s at a flow rate 100 μl/min, and equilibrated with the buffer prior to next injection. For binding kinetics studies, binding isotherms were analyzed with manufacturer-supplied software for BIAcore T100.

Some results are limits rather than exact numbers.

For orientation: Kd means a measure of binding affinity in units of concentration. A lower Kd goes with a tighter complex.

In the case of `Cc1ccc(-c2cc(/C=C/c3cc4c5c(c3)CCCN5CCC4)[o+]c(-c3ccc(C)cc3)c2)cc1.F[B-](F)(F)F` [6jc65-1], in data set [1], the “Antibacterial activity (MIC) A. baumanii ATCC 19606” value is recorded as 11.31. Also, the Antibacterial activity (MIC) E. aerogenes ATCC 13048 in data set [2] was determined as 32 µg/mL. The molecule also yielded an Antibacterial activity (MIC) E. cloacae ATCC 13047 in [3] of 64 µg/mL. For the same molecule, the “Antibacterial activity (MIC) E. faecium EF1509 (VRE)” value in data set [4] amounted to 2. For the same molecule, the “Antibacterial activity (MIC) E. faecium F118 (VRE)” value in [5] is reported as 4. This molecule had an Antibacterial activity (MIC) K. pneumoniae NR-15410 (KPC) in [6] of 64 µg/mL. This molecule displayed an Antibacterial activity (MIC) K. pneumoniae NR-15411 (KPC) in [7] of at least 64 µg/mL. In addition, in data set [8], the Antibacterial activity (MIC) P. aeruginosa ATCC 27853 turned out to be 64 µg/mL. In [9], this molecule showed an Antibacterial activity (MIC) P. aeruginosa PA01 of 64 µg/mL. Further, the “Antibacterial activity (MIC) P. aeruginosa X13273” value in data set [10] is listed as 64. In addition, the Antibacterial activity (MIC) S. aureus HFH-30123 (MRSA) in data set [11] amounted to 2 µg/mL. For the same molecule, the Antibacterial activity (MIC) S. aureus MRSA 1094 in data set [12] was determined as 2.83 µg/mL. Besides, the “CC50% (72 h HeLa cells)” value in data set [13] is “<.78125”. In data set [14], binding was put at a Kd of 2170 ± 200 nM.

For `Cc1ccc(-c2cc(/C=C/c3cn(C)c4ccccc34)[o+]c(-c3ccc(C)cc3)c2)cc1.F[B-](F)(F)F` [6jc65-2], in data set [1], the “Antibacterial activity (MIC) A. baumanii ATCC 19606” value was determined as 32. In data set [2], this molecule had an Antibacterial activity (MIC) E. aerogenes ATCC 13048 of 64 µg/mL. Further, in data set [3], the Antibacterial activity (MIC) E. cloacae ATCC 13047 turned out to be 64 µg/mL. Also, the “Antibacterial activity (MIC) E. faecium EF1509 (VRE)” value in data set [4] worked out at 2. Moreover, the “Antibacterial activity (MIC) E. faecium F118 (VRE)” value in [5] was 4. Besides, the Antibacterial activity (MIC) K. pneumoniae NR-15410 (KPC) in data set [6] was 64 µg/mL. The molecule also registered an Antibacterial activity (MIC) K. pneumoniae NR-15411 (KPC) in data set [7] of at least 64 µg/mL. The Antibacterial activity (MIC) P. aeruginosa ATCC 27853 in data set [8] is at least 64 µg/mL. Moreover, the Antibacterial activity (MIC) P. aeruginosa PA01 in data set [9] was at least 64 µg/mL. Further, in data set [10], the “Antibacterial activity (MIC) P. aeruginosa X13273” value is listed as “>=64”. For the same molecule, the Antibacterial activity (MIC) S. aureus HFH-30123 (MRSA) in [11] is 2 µg/mL. The same molecule registered an Antibacterial activity (MIC) S. aureus MRSA 1094 in [12] of 2 µg/mL. Besides, the “CC50% (72 h HeLa cells)” value in data set [13] is listed as 0.94. This molecule also came in with a Kd in data set [14] of 3900 ± 400 nM.

`Cn1cc(/C=C/c2cc(-c3ccccc3)cc(-c3ccccc3)[o+]2)c2ccccc21.F[B-](F)(F)F` [6jc66-1]: in data set [1], the “Antibacterial activity (MIC) A. baumanii ATCC 19606” value is listed as 45.25. For the same molecule, the Antibacterial activity (MIC) E. aerogenes ATCC 13048 in [2] is at least 64 µg/mL. Also, the Antibacterial activity (MIC) E. cloacae ATCC 13047 in data set [3] is at least 64 µg/mL. For the same molecule, the “Antibacterial activity (MIC) E. faecium EF1509 (VRE)” value in data set [4] turned out to be 4. Further, the “Antibacterial activity (MIC) E. faecium F118 (VRE)” value in data set [5] came out at 8. The Antibacterial activity (MIC) K. pneumoniae NR-15410 (KPC) in data set [6] is at least 64 µg/mL. Moreover, the Antibacterial activity (MIC) K. pneumoniae NR-15411 (KPC) in data set [7] is at least 64 µg/mL. In addition, the Antibacterial activity (MIC) P. aeruginosa ATCC 27853 in [8] was at least 64 µg/mL. The molecule further showed an Antibacterial activity (MIC) P. aeruginosa PA01 in [9] of at least 64 µg/mL. Moreover, the “Antibacterial activity (MIC) P. aeruginosa X13273” value in data set [10] is on record as “>=64”. Also, the Antibacterial activity (MIC) S. aureus HFH-30123 (MRSA) in data set [11] was found to be 4 µg/mL. The Antibacterial activity (MIC) S. aureus MRSA 1094 in data set [12] was found to be 2.83 µg/mL. For the same molecule, the “CC50% (72 h HeLa cells)” value in data set [13] was determined as 1.36. This molecule yielded a Kd in [14] of 2900 ± 300 nM.

On to `CCc1ccc(-c2cc(/C=C/c3cn(C)c4ccccc34)[o+]c(-c3ccc(CC)cc3)c2)cc1.F[B-](F)(F)F` [6jc66-2], for which, in data set [1], the “Antibacterial activity (MIC) A. baumanii ATCC 19606” value is on record as 64. The molecule further showed an Antibacterial activity (MIC) E. aerogenes ATCC 13048 in data set [2] of at least 64 µg/mL. In data set [3], the Antibacterial activity (MIC) E. cloacae ATCC 13047 is at least 64 µg/mL. Besides, the “Antibacterial activity (MIC) E. faecium EF1509 (VRE)” value in data set [4] came to 4. Moreover, the “Antibacterial activity (MIC) E. faecium F118 (VRE)” value in [5] amounted to 5.66. The molecule also displayed an Antibacterial activity (MIC) K. pneumoniae NR-15410 (KPC) in data set [6] of 64 µg/mL. Moreover, the Antibacterial activity (MIC) K. pneumoniae NR-15411 (KPC) in [7] is at least 64 µg/mL. The molecule further yielded an Antibacterial activity (MIC) P. aeruginosa ATCC 27853 in [8] of at least 64 µg/mL. Moreover, the Antibacterial activity (MIC) P. aeruginosa PA01 in data set [9] is at least 64 µg/mL. Moreover, in data set [10], the “Antibacterial activity (MIC) P. aeruginosa X13273” value is reported as “>=64”. The Antibacterial activity (MIC) S. aureus HFH-30123 (MRSA) in data set [11] came out at 4 µg/mL. The same molecule showed an Antibacterial activity (MIC) S. aureus MRSA 1094 in data set [12] of 4 µg/mL. Besides, the “CC50% (72 h HeLa cells)” value in [13] is 1.42. Further, binding in data set [14] was characterised by a dissociation constant (Kd) of 1600 ± 200 nM.

The values are drawn from publication PMC5077133, “Towards Development of Small Molecule Lipid II Inhibitors as Novel Antibiotics” (PLoS ONE, 2016).
